Entries after “also recorded” stand apart in the source; their conditions may differ.
Key:
U87MG tumor [1] = test: Small animal PET imaging in U87MG tumor-bearing mice; assay type: in vivo; conditions: 1 h p.i.
Procedure: All animal studies were approved by the Animal Care and Use Committee of Xiamen University and carried out in compliance with the national laws related to the conduct of animal experimentation. 6-week-old female BALB/c nude mice from Beijing Vital River Laboratory Animal Technology Co., Ltd. were used in this study. The right upper limbs of BALB/c nude mice were subcutaneously inoculated with the suspension of U87MG cells (5 × 10^6 cells in 100 μL of PBS). […] PET scans were performed by using Inveon small-animal PET scanner (Siemens Preclinical Solution). […] At 1 h p.i., the mice were anaesthetized and placed on the bed for PET imaging. […] PET images were reconstructed with attenuation correction and analyzed through drawing regions of interest (ROIs).

U87MG tumor [2] = test: Biodistribution in U87MG tumor-bearing mice at 96 h p.i.; set-up: species or system BALB/c nude mice; conditions: ex vivo counting
Procedure: (§1) All animal studies were approved by the Animal Care and Use Committee of Xiamen University and carried out in compliance with the national laws related to the conduct of animal experimentation. 6-week-old female BALB/c nude mice from Beijing Vital River Laboratory Animal Technology Co., Ltd. were used in this study. The right upper limbs of BALB/c nude mice were subcutaneously inoculated with the suspension of U87MG cells (5 × 10^6 cells in 100 μL of PBS). The mice underwent radioligand therapy experiments when the tumor volume reached about 100 mm^3 and small animal SPECT imaging studies when the tumor volume reached about 500 mm^3.
(§2) In biodistribution study of normal mice, healthy ICR mice (18-20 g) were randomly divided into 6 groups (n = 4/group), injected with radiotracers (740 kBq in 0.1 mL saline) and sacrificed at 0.25, 1, 4, 8, 24 and 48 h p.i. Tissues and organs of interest were collected, wet weighed, and counted by a γ-counter. In addition, BALB/c nude mice bearing U87MG tumors were injected with radiotracers for SPECT imaging, and then, sacrificed at 96 h p.i., the major organs and tumors were collected and weighed. Radioactivity was detected using a γ-counter, and the results were calculated as percentage of injected dose per gram (%ID/g).

[3] = In vitro stability in PBS and saline (radio-HPLC/TLC); assay type: physicochemical
[4] = Safety evaluation in the therapy study (body weight, H&E staining of major organs); assay type: in vivo, BALB/c nude mice
Procedure: (§3) Two weeks after inoculation of U87MG tumor cells, the average tumor volume reached about 100 mm^3 in BALB/c nude mice. The U87MG tumor-bearing mice were randomly divided into 4 groups (n = 8/group), and subsequently treated with saline, 30 MBq ^177Lu-EB-FAPI-B1, 18.5 MBq ^177Lu-EB-FAPI-B1, 7.4 MBq ^177Lu-EB-FAPI-B1, respectively. Tumor volumes and body weights of all mice were monitored every two days. Individual tumor size was calculated with the formula: length × width^2/2. The mice were euthanized when the tumor volume exceeded 1500 mm^3. Histopathologic staining was performed with an anti-human FAP mAb (ab207178, Abcam). Hematoxylin and eosin (H&E) staining and terminal deoxynucleotidyl transferase-mediated dUTP-biotin nick-end labeling (TUNEL) analysis were carried out using a commercially available kit (Beyotime).

[5] = Biodistribution in healthy ICR mice; assay type: in vivo
Procedure: as §2

[6] = Octanol/water partition coefficient; assay type: physicochemical
Procedure: A detailed scheme of chemical synthesis protocol is elaborated in the supplementary materials. To radiolabel the precursor with ^177Lu, 185-740 MBq of ^177LuCl3 was firstly diluted with 0.2 mL of 0.5 M NH4OAc (pH = 5.5) before incubating with EB-FAPI-Bn (50 μg dissolved in 10 μL dimethyl sulfoxide). The mixture was heated and thoroughly mixed for 30 min at 95 °C. Radiolabeling efficiency and radiochemical purity were tested using thin-layer chromatography (TLC) and high-performance liquid chromatography (HPLC). Radiolabeling of ^68Ga was performed by incubating with 50 μg precursor (pH = 4.5-5.0) at 95 ℃ for 10 min. The ^68Ga-labeled product was purified by C18 column extraction and the radiochemical purity was determined by HPLC. Stability of ^177Lu-EB-FAPI-B1, ^177Lu-EB-FAPI-B2, ^177Lu-EB-FAPI-B3 and ^177Lu-EB-FAPI-B4 (See Figure 1 for the structures) in PBS and saline were monitored up to 24 h using radio-HPLC. More information about radiochemistry, quality control and octanol/water partition coefficient can be found in supplemental information.

U87MG tumor [7] = test: Radioligand therapy study and tumor histopathology in U87MG tumor-bearing mice; assay type: in vivo, BALB/c nude mice
Procedure: as §1, §3

U87MG tumor [8] = test: Small animal SPECT/CT imaging in U87MG tumor-bearing mice; assay type: in vivo, BALB/c nude mice
Procedure: as §1
SPECT/CT imaging studies were performed using a nanoSPECT/CT preclinical scanner (Mediso, Hungary). About 37 MBq of radiotracers were injected intravenously into female ICR mice and U87MG tumor-bearing mice, whole body SPECT images were acquired at 1, 4, 24, 48, 72 and 96 h p.i. The acquisition parameters were as follows: 56.1, 112.9 and 208.4 keV energy peaks for ^177Lu, window width of 20%, matrix of 256 × 256, medium zoom, and 48 frames. Mice were anaesthetized using 1.5% isoflurane to maintain spontaneous breathing during imaging.

U87MG cells = test: Cell uptake and blocking assay; assay type: cell-based
Procedure: (§4) U87MG cells were cultivated in Dulbecco modified Eagle medium (DMEM) containing 10% fetal calf serum (FCS) at 37 ℃ in 5% carbon dioxide (CO2). For cell uptake experiment, U87MG cells were seeded in 24-well plates (2 × 10^5/well) overnight. The cells were incubated with 37 kBq of ^177Lu-EB-FAPI series compounds in 0.5 mL of medium for 0.5, 1, 2, 4, 8 and 24 h at 37 °C. In the blocking group, FAPI-02 (10 μg/well) were added as inhibitors of the labeled precursors. For competition assays, U87MG cells were incubated simultaneously with different concentrations (10^-5-10^-11 M) of unlabeled FAPI-02 or EB-FAPI-B1 and ^68Ga-FAPI-02 in 0.4 mL of fresh medium for 1 h. At the corresponding time points, the medium was removed and the cells were washed twice with cold PBS (pH 7.4) and subsequently lysed with 1 mL of NaOH (0.1 M). Cell lysates was collected and the radioactivity was determined using a γ-counter. The cell uptake experiment was repeated four times for each time point and the competition assays were repeated three times at different concentrations.

FAP = biological target: T1, FAP (Homo sapiens, UniProt Q12884); test: Competition assay against ^68Ga-FAPI-02 in U87MG cells; conditions: unlabeled ligand competing with ^68Ga-FAPI-02, 1 h, read-out: IC50 (binding affinity to FAP in vitro)
T1 construct: endogenous in cells; host or cells: U87MG cells
T1 sequence (Q12884 1-760): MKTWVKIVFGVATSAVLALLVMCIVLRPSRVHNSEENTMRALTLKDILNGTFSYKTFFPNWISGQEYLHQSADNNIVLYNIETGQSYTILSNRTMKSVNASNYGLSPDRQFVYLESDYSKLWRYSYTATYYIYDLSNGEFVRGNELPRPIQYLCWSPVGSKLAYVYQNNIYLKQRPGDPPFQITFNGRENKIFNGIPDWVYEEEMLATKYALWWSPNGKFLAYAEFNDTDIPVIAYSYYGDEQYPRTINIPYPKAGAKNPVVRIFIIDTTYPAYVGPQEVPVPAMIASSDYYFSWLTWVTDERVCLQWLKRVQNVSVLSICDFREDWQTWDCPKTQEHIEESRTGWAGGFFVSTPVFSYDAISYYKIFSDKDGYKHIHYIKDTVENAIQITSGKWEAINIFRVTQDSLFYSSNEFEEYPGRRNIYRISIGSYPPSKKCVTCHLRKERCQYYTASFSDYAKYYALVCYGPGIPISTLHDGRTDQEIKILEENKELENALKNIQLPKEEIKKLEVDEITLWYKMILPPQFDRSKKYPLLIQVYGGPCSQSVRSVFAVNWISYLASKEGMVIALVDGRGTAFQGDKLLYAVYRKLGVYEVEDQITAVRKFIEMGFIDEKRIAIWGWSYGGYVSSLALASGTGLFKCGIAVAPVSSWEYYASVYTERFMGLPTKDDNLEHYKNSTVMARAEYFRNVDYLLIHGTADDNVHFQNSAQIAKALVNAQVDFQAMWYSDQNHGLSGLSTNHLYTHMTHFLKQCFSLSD
Procedure: as §4

[9] = SPECT, value given with the increase from 24 h to 96 h p.i.

With `Cc1cc(-c2ccc(NC(=O)C(CCCCNC(=O)CCC(=O)N3CCN(CCCOc4ccc5nccc(C(=O)NCC(=O)N6CCC[C@H]6C#N)c5c4)CC3)NC(=O)CN3CCN(CC(=O)[O-])CCN(CC(=O)[O-])CCN(CC(=O)[O-])CC3)c(C)c2)ccc1N=Nc1ccc2c(S(=O)(=O)O)cc(S(=O)(=O)O)c(N)c2c1O.[68Ga+3]` (some centres unmarked) [^68Ga-EB-FAPI-B1] the “T/M ratio compared with ^68Ga-FAPI-02” value (U87MG tumor [1]) was “higher T/M ratio” and the tumor uptake value (U87MG tumor [1]) was 3.5 ± 0.22 %ID/g.

For `Cc1cc(-c2ccc(NC(=O)C(CCCCNC(=O)CCC(=O)N3CCN(CCCOc4ccc5nccc(C(=O)NCC(=O)N6CCC[C@H]6C#N)c5c4)CC3)NC(=O)CN3CCN(CC(=O)[O-])CCN(CC(=O)[O-])CCN(CC(=O)[O-])CC3)c(C)c2)ccc1N=Nc1ccc2c(S(=O)(=O)O)cc(S(=O)(=O)O)c(N)c2c1O.[177Lu+3]` (some centres unmarked) [^177Lu-EB-FAPI-B1], the tumor uptake (U87MG tumor [2]) was 12.42 ± 1.54 %ID/g, the “time stable in PBS (pH 7.4) and saline” value ([3]; PBS (pH 7.4) and saline) was “at least 24 h” and the “radiochemistry purity after incubation” value ([3]; PBS and saline, at 24 h and 48 h) was “over 95%”. For the same compound, the body weight change ([4]; all treatment groups (30, 18.5, 7.4 MBq)) was “slight body weight loss”, the “H&E staining of major organs (safety evaluation)” value ([4]; heart, liver, spleen, lung, kidneys after treatment) was “negligible side effect; also recorded: no distinct tissue damage” and the blood uptake ([5]; 4 h p.i.) was 21.93 ± 2.13 %ID/g. For the same compound, the “kidney uptake (highest value)” value ([5]; 8 h p.i.) was 16.38 ± 2.98 %ID/g, the kidney uptake ([5]; 48 h p.i.) was 8.13 ± 1.36 %ID/g and the “Octanol/water partition coefficient (Log P)” value [6] was -1.90 ± 0.12. The “TUNEL staining of excised tumor” value (U87MG tumor [7]; 18.5 MBq group versus saline group) was “remarkably more cell apoptosis”, the relative tumor size (U87MG tumor [7]; single dose of 30, 18.5 or 7.4 MBq (all three doses), day 0 to day 22) was “no more than 5” and the “tumor growth compared to the saline group” value (U87MG tumor [7]; single dose of 30 MBq, 18.5 MBq or 7.4 MBq) was “noteworthy tumor growth inhibitions; also recorded: noteworthy tumor growth delay”. The “H&E staining of excised tumor” value (U87MG tumor [7]; treatment groups versus saline group) was “large necrotic areas”, the “tumor uptake on SPECT images” value (U87MG tumor [8]; 4 h p.i.) was “obvious tumor uptake was observed” and the “tumor-to-muscle ratio (T/M)” value (U87MG tumor [8]; SPECT, 24 h p.i.) was 12.29 ± 0.85. The “tumor-to-muscle ratio (T/M), peak” value (U87MG tumor [8]; SPECT, 72 h p.i.) was 18.67 ± 3.75, the “tumor-to-muscle ratio (T/M)” value (U87MG tumor [8]; SPECT, 96 h p.i.) was 14.15 ± 0.13 and the “tumor-to-heart ratio (T/H)” value (U87MG tumor [8]; [9]) was 14.28 ± 2.46. The “tumor-to-kidney ratio (T/K)” value (U87MG tumor [8]; [9]) was 2.35 ± 0.61, the “tumor-to-liver ratio (T/L)” value (U87MG tumor [8]; [9]) was 3.73 ± 1.21 and the “cellular uptake with blocking by unlabeled inhibitor” value (U87MG cells; blocking group) was 2.25 ± 0.14%. It also gave a highest cellular uptake (U87MG cells; incubation for 24 h) of 9.97 ± 0.42%.

With `N#C[C@@H]1CCCN1C(=O)CNC(=O)c1ccnc2ccc(OCCCN3CCN(C(=O)CN4CCN(CC(=O)[O-])CCN(CC(=O)[O-])CCN(CC(=O)[O-])CC4)CC3)cc12.[177Lu+3]` [^177Lu-FAPI-02, reference compound] the “blood accumulation relative to ^177Lu-EB-FAPI-B1” value ([5]; 4 h p.i.) was “about 1%” and the blood uptake ([5]; 4 h p.i.) was 0.23 ± 0.06 %ID/g.

In the case of `N#C[C@@H]1CCCN1C(=O)CNC(=O)c1ccnc2ccc(OCCCN3CCN(C(=O)CN4CCN(CC(=O)[O-])CCN(CC(=O)[O-])CCN(CC(=O)[O-])CC4)CC3)cc12.[68Ga+3]` [^68Ga-FAPI-02, reference compound], the tumor uptake value (U87MG tumor [1]) is reported as 0.85 ± 0.21 %ID/g and the “tumor uptake in the presence of the blocking agent EB-FAPI-B1” value (U87MG tumor [1]; unlabeled EB-FAPI-B1 as competitor) is reported as “decreased more than half”.

Work on `N#C[C@@H]1CCCN1C(=O)CNC(=O)c1ccnc2ccc(OCCCN3CCN(C(=O)CN4CCN(CC(=O)O)CCN(CC(=O)O)CCN(CC(=O)O)CC4)CC3)cc12` [FAPI-02] yielded an IC50 (FAP) of 10.9 nM.
